We go through two compounds from publication PMC9481570, “A small molecule antagonist of SMN disrupts the interaction between SMN and RNAP II” (Nature Communications, 2022).

Test [1] concerns the target T1, SMN Tudor domain (Homo sapiens, UniProt Q16637).
T1 construct: SMN (aa 82–147); His (N, cleaved yes); made in house; host or cells: E. coli BL21 (DE3) Codon plus RIL
Description: ITC binding to Tudor domain of SMN. Conditions: Supplementary Figs. 2, 4 and 11a (VP-ITC); read-out: Kd, ITC binding curve, Tudor domain of SMN. The source says: The coding DNA fragments of following Tudor domains were cloned into pET28-MHL vector: SMN (aa 82–147), UHRF1 (aa 126–285), SMNDC1 (aa 53–130), TDRD3 (aa 554–611), SND1 (aa 650–910), TDRD2 (aa 327–420), FXR1 (aa 2–132), PHF1 (aa 28–87), SGF29 (aa 115–293), JMJD2A (aa 897–1101), 53BP1 (aa 1483–1606), SETDB1 (aa 190–410), LBR (aa 1–67), ZGPAT (aa 120–271). The coding regions of chromodomain of CBX7 (aa 8–62), PWWP domain of DNMT3A (aa 275–417), WD40 repeats of WDR5 (aa 24–334) and CW domain of ZCWPW2 (aa 21–78) were also subcloned into pET28-MHL vector to generate N-terminally His-tagged fusion protein. The MBT repeats of L3MBTL1 (aa 200–522) and L3MBTL2 (aa 170–625) were subcloned into pET28GST-LIC vector to generate N-terminally GST-His-tagged fusion protein. All the plasmids were generated by ligase independent cloning (Vazyme Biotech, C112 or ABclonal Technology, RK21020). […] The proteins were further purified by Superdex75 or Superdex200 gel-filtration column (GE Healthcare) in a buffer containing 20 mM Tris-HCl, pH 7.5, 150 mM NaCl and 1 mM DTT. For crystallization experiments, purified proteins were concentrated to 18 mg/mL for SMN, 23 mg/mL for UHRF1 and 10 mg/mL for TDRD3 in the gel-filtration buffer. All the mutations were introduced with the QuikChange II XL site-directed mutagenesis kit (Stratagene, 200522) and confirmed by DNA sequencing. Mutant proteins were also expressed in E. coli BL21 (DE3) Codon plus RIL and purified using the same procedures described above. The molecular weight of all protein samples was measured by mass spectrometry.
For the ITC measurement, the concentrated proteins were diluted into 20 mM Tris-HCl, pH 7.5, 150 mM NaCl (ITC buffer); the lyophilized compounds were dissolved in the same buffer, and the pH value was adjusted by adding 2 M NaOH or 2 M HCl. The compounds that could not be dissolved in the ITC buffer were dissolved in DMSO with the accessible highest concentration. Compound concentrations were calculated from the mass and the volume of the solvent. For the ITC assay with compound dissolved in DMSO, the protein was diluted by ITC buffer containing same final concentration of DMSO. All measurements were performed in duplicate at 25 °C, using a VP-ITC (MicroCal, Inc.), an iTC-200 (MicroCal, Inc.), or a Nano-ITC (TA, Inc.) microcalorimeter. The protein with a concentration of 50–100 μM was placed in the cell chamber, and the compounds with a concentration of 0.5–2 mM in syringe was injected in 25, 20, or 20 successive injections with a spacing of 180, 150, or 120 s for VP-ITC, iTC-200, or Nano-ITC, respectively, as previously described[30]–[32]. iTC-200 or Nano-ITC data were consistent with those from the VP-ITC instrument, based on ITC results of SMN-compound 1 detected by using all the instruments. Control experiments were performed under identical conditions to determine the heat signals that arise from injection of the compounds into the buffer. Data were fitted using the single-site binding model within the Origin software 7.0 package (MicroCal, Inc.) or the independent model within the Nano-Analyze software package (TA, Inc.).

Test [2] has as its target T1, SMN Tudor domain. Description: Fluorescence of CCVJ-Cmpd 1 in solution on addition of SMN Tudor domain. It counts as binding. Conditions: 10 μM SMN Tudor with 10 μM CCVJ-Cmpd 1, in solution. The text has this: Supplementary Fig. 5 Interaction between Tudor domain of SMN and CCVJ-Cmpd 1 triggers fluorescence signals. a Fluorescence signals of 10 µM SMN Tudor, 10 µM CCVJ-Cmpd 1, and mixture of 10 µM SMN Tudor with 10 µM CCVJ-Cmpd 1 were detected by fluorescence microscope (Nikon, ECLIPSE Ti-E), under the excitation of blue light. The […]
the SMN Tudor domain protein. Exposure time: 1 s. b Fluorescence signals for addition of different concentrations of the SMN Tudor domain protein to 5 µM CCVJ-Cmpd 1 detected by Infinite M1000 Pro microplate reader (Tecan) with an excitation wavelength of 440 nm and an emission wavelength of 460-600 nm. Data shown are representative of three […]

A further test has as its target T2, mCherry-SMN (Homo sapiens, UniProt Q16637).
T2 construct: the coding DNAs of full-length SMN, SND1 and TDRD3 were cloned into mCherry2-C1 or GFP-C1 vector; expressed in transfected cells; host or cells: U2OS
Description: Fluorescence colocalization in U2OS cells, mCherry-SMN WT. It counts as cell-based. To be noted: 10 μM, 24 h. The protocol: (§1) U2OS cells (ATCC, HTB-96) were plated in a 35 mm FluoroDish with a 0.17 mm coverslip bottom (World Precision Instruments, FD35-100) for 12–24 h and transfected with 1.0 μg mCherry-SMN WT (wild-type) or mutant plasmids. Media was changed 4–6 h after transfection and cells were cultured for another 24 h. 10 μM CCVJ-Cmpd 1 was added for 24 h treatment. Then the treated cells were rinsed by PBS and the media replaced with phenol-free FluoroBright DMEM (Thermo Fisher, A1896701) for analysis by using Zeiss LSM880 microscopy.

Test [3] relates to mCherry-SMN cage mutant (W102). Description: Fluorescence colocalization in U2OS cells, mCherry-SMN cage mutant. It counts as cell-based, human. Conditions: 10 μM, 24 h, W102 mutated. The protocol:
as §1

Another test addresses T3, SMN (Homo sapiens, UniProt Q16637).
T3 construct: endogenous in cells; host or cells: U2OS
To be noted: physiological ligand; read-out: binding affinity (Kd) to SMN; cited from earlier work.

T1 sequence (Q16637 82-147): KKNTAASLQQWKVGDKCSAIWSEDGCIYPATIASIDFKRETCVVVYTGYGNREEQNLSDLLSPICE
T3 sequence (Q16637 whole entry): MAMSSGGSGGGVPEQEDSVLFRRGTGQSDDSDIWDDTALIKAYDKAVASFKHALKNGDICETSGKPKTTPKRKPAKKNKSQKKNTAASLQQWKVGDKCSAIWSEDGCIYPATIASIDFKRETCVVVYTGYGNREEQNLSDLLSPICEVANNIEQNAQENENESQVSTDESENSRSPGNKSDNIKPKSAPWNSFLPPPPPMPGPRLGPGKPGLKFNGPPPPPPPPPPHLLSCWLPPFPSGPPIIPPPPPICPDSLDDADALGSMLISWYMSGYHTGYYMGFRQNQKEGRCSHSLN
T2 sequence (Q16637 whole entry): as above

For `N#C/C(=C\c1cc2c3c(c1)CCCN3CCC2)C(=O)NCCNC(=O)Cn1c2c(c(=N)c3c1CCC3)CCC2` [CCVJ-Cmpd 1], the Kd on SMN Tudor domain [1] turned out to be 22 ± 1 µM. Also, the “fluorescence signal on addition of SMN Tudor domain protein” value at SMN Tudor domain [2] is reported as “enhanced”. The “colocalization with mCherry-SMN” value at mCherry-SMN is recorded as “colocalized”. In addition, in test [3], the “colocalization with mCherry-SMN cage mutant” value is on record as “not observed”.

With `CN=C(NC)NCCC[C@H](N)C(=O)O` [symmetric dimethylarginine], the Kd at SMN was 476 µM.
